From patent US4517296A, “Antibiotic acmimycin and its production” (Toyo Jozo Kabushiki Kaisha, priority 1982, dated 1985)
Values after ≈ are worked out from the molar mass of the structure shown.

Key:
Serratia marcescens = test: MIC by agar dilution method, Serratia marcescens; type: cell-based; settings: read-out: minimum inhibitory concentration (MIC)
[1] = tested on: Staph. epidermidis sp-al-1; test: MIC by agar dilution method, Staph. epidermidis sp-al-1; type: cell-based; settings: Staphylococcus epidermidis, SPAL1, read-out: minimum inhibitory concentration (MIC)
Staph. aureus 0119 = test: MIC by agar dilution method, Staph. aureus 0119; type: cell-based; settings: Staphylococcus aureus, read-out: minimum inhibitory concentration (MIC)
[2] = tested on: Salm. enteritidis Gaertner; test: MIC by agar dilution method, Salm. enteritidis Gaertner; type: cell-based; settings: Salmonella enterica, read-out: minimum inhibitory concentration (MIC)
Shigella sonnei E33 = test: MIC by agar dilution method, Shigella sonnei E33; type: cell-based; settings: read-out: minimum inhibitory concentration (MIC)
Staph. aureus ATCC6538P = test: MIC by agar dilution method, Staph. aureus ATCC6538P; type: cell-based; settings: Staphylococcus aureus, read-out: minimum inhibitory concentration (MIC)
Proteus morganii 0239 = test: MIC by agar dilution method, Proteus morganii 0239; type: cell-based; settings: Morganella morganii, read-out: minimum inhibitory concentration (MIC)
[3] = tested on: Bacillus subtilis ATCC6633; test: MIC by agar dilution method, Bacillus subtilis ATCC6633; type: cell-based; settings: read-out: minimum inhibitory concentration (MIC)
[4] = tested on: Enterobac. aerogenes 0655; test: MIC by agar dilution method, Enterobac. aerogenes 0655; type: cell-based; settings: read-out: minimum inhibitory concentration (MIC)
Enterobac. cloacae GN336 = test: MIC by agar dilution method, Enterobac. cloacae GN336; type: cell-based; settings: read-out: minimum inhibitory concentration (MIC)
E. coli NIHJ-JC2 = test: MIC by agar dilution method, E. coli NIHJ-JC2; type: cell-based; settings: Escherichia coli, NIHJJC2, read-out: minimum inhibitory concentration (MIC)
Solubility = type: physicochemical
Proteus rettgeri ACR = test: MIC by agar dilution method, Proteus rettgeri ACR; type: cell-based; settings: Providencia rettgeri, read-out: minimum inhibitory concentration (MIC)
[5] = tested on: Pseudo. aeruginosa IAM1095; test: MIC by agar dilution method, Pseudo. aeruginosa IAM1095; type: cell-based; settings: Pseudomonas aeruginosa, read-out: minimum inhibitory concentration (MIC)
Cit. freundii GN346 = test: MIC by agar dilution method, Cit. freundii GN346; type: cell-based; settings: Citrobacter freundii, read-out: minimum inhibitory concentration (MIC)
Strept. pyogenes N.Y. 5 = test: MIC by agar dilution method, Strept. pyogenes N.Y. 5; type: cell-based; settings: Streptococcus pyogenes, read-out: minimum inhibitory concentration (MIC)
[6] = tested on: Kleb. pneumoniae ATCC10031; test: MIC by agar dilution method, Kleb. pneumoniae ATCC10031; type: cell-based; settings: Klebsiella pneumoniae, read-out: minimum inhibitory concentration (MIC)
Staph. aureus MS27 = test: MIC by agar dilution method, Staph. aureus MS27; type: cell-based; settings: Staphylococcus aureus, read-out: minimum inhibitory concentration (MIC)
E. coli W3630RGN14 = test: MIC by agar dilution method, E. coli W3630RGN14; type: cell-based; settings: Escherichia coli, W3630RGN14, read-out: minimum inhibitory concentration (MIC)
E. coli W3630 = test: MIC by agar dilution method, E. coli W3630; type: cell-based; settings: Escherichia coli, read-out: minimum inhibitory concentration (MIC)

SMILES: CNC1C(O)C(NC)C2OC3(O)C(OC)=CC(C)OC3OC2C1O (stereo not drawn) [acmimycin]
- MIC (Serratia marcescens): 25 µg/mL (≈ 72.2 µM)
- MIC [1]: 50 µg/mL (≈ 144 µM)
- MIC (Staph. aureus 0119): > 100 µg/mL
- MIC [2]: 25 µg/mL (≈ 72.2 µM)
- MIC (Shigella sonnei E33): 25 µg/mL (≈ 72.2 µM)
- MIC (Staph. aureus ATCC6538P): 100 µg/mL (≈ 289 µM)
- MIC (Proteus morganii 0239): > 100 µg/mL
- MIC [3]: 25 µg/mL (≈ 72.2 µM)
- MIC [4]: > 100 µg/mL
- MIC (Enterobac. cloacae GN336): 50 µg/mL (≈ 144 µM)
- MIC (E. coli NIHJ-JC2): 50 µg/mL (≈ 144 µM)
- Solubility (Solubility; in acetone): insoluble
- Solubility (Solubility; in benzene): insoluble
- Solubility (Solubility; in ethyl acetate): insoluble
- Solubility (Solubility; in lower alcohols such as methanol): slightly soluble
- Solubility (Solubility; in water): soluble
- MIC (Proteus rettgeri ACR): 100 µg/mL (≈ 289 µM)
- MIC [5]: > 100 µg/mL
- MIC (Cit. freundii GN346): > 100 µg/mL
- MIC (Strept. pyogenes N.Y. 5): 3.1 µg/mL (≈ 8.95 µM)
- MIC [6]: 12.5 µg/mL (≈ 36.1 µM)
- MIC (Staph. aureus MS27): 100 µg/mL (≈ 289 µM)
- MIC (E. coli W3630RGN14): > 100 µg/mL
- MIC (E. coli W3630): 25 µg/mL (≈ 72.2 µM)
